Measurements: patent US5034396A, “Method of treating depression with optically active isomers of 20,21-dinoreburnamenines” (Roussel Uclaf, priority 1987, dated 1991)

Experiments:
[1] = system: alpha2 adrenergic receptors; assay: Affinity for the alpha2 adrenergic receptors (3H rauwolscine displacement, rat cortex membranes); assay type: binding; conditions: 3H rauwolscine 0.15 nM, 45 minutes at 25° C., from CD (phentolamine) and CX (product) concentrations inhibiting 50% of specific fixation
Method: (1) Affinity for the alpha2 adrenergic receptors
10 cortices removed from the brains of male rats weighing an average of 150 g were homogenized in 90 ml of sucrose 0.32M and after centrifuging the homogenized mixture at 1,000 g for 10 minutes at 0° C., the supernatant was centrifuged at 30,000 g for 10 minutes at 0° to 4° C. The new residue obtained was suspended in 480 ml of NaKPO4 buffer, pH 7.4, 50 mM. 2 ml of the suspension were then incubated for 45 minutes at 25° C. in the presence of ^3 H rauwolscine at a concentration of 0.15 nM: (i) alone (ii) with increasing concentrations of the product under test, or (iii) to determine the non-specific fixation, with non-radioactive phentolamine at a concentration of 10^-5 M. The incubated suspensions were filtered on Whatman GF/C and the filters were washed three times with 5 ml of NaKPO4 buffer, pH 7.4 at 0° C. The radioactivity of the filters was measured by liquid scintillation.
The affinity of the product tested for the alpha2 adrenegic receptors was given relative to phentolamine as reference product.
CD=concentration of phentolamine inhibiting 50% of the specific fixation of the ^3 H rauwolscine:
CX=concentration of the product under test inhibiting 50% of the specific fixation of the ^3 H rauwolscine.

mice [2] = assay: Hypobaric anoxia test on mice; assay type: in vivo; conditions: depression of 600 mm Hg, max 3 minutes, intraperitoneally 60 minutes before the test, dose not given
Method: (2) Hypobaric anoxia test on mice
This consisted of measuring over a maximum duration of 3 minutes the survival time of mice placed in a 2 liter enclosure in which there was a depression of 600 mm Hg. The products were administered intraperitoneally at a volume of 0.2 ml/10 g 60 minutes before the test.

mice [3] = assay: Test of neuronal protection in mice (kainic acid striatal lesion, serum enolase gamma-gamma); assay type: in vivo; conditions: mouse, 2 μg kainic acid in right striatum; product intraperitoneally 60 minutes before; blood samples 24 hours later; dose not given
Method: (3) Test of neuronal protection in mice
A cerebral lesion was carried out on the mouse by injection in the right striatum of 2 μg of kainic acid in a volume of 0.5 μl. […] The products were injected intraperitonally 60 minutes before the neurotoxic and the blood samples were taken 24 hours later.

Sprague Dawley rats = assay: Test of anti-depressive activity (forced swimming immobility); assay type: in vivo; conditions: Rattus norvegicus, ip, immobility during 5 minutes, intraperitoneally 24 hours, 5 hours and a half-hour before the test, read-out: DA50 (the source's name)
Method: (4) Test of anti-depressive activity
The tests were carried out on groups of 5 Sprague Dawley rats and the non-conditioned animals were put for 15 minutes in a vertical perspex cylinder (diameter: 18 cm, height: […]) containing water at 25° C. to a height of 15 cm (initial swimming test). They were then dried for 15 minutes in an enclosure heated to 32° C. and 24 hours later, they were replaced in the cylinder filled with water, and the total duration of the periods of immobility was measured during 5 minutes. The compound was administered intraperitonally successively 24 hours, 5 hours and a half-hour before the test. The first administration was made immediately after the first swimming test and just before replacing the animals in their breeding box. The averages of the groups treated were compared with those of the control group by the Dunnett test.

Row | ARL (relative affinity for alpha2 adrenergic receptors, relative to phentolamine) [1] | SMILES | Survival time (mice [2]) | enolase gamma-gamma (mice [3]) | ED50 (Sprague Dawley rats)
1 | 57 | O[C@@H]1C[C@H]2CCCN3CCc4c(n1c1ccccc41)[C@H]23 [Example 4, (3α, 14β) 14,15-dihydro-20,21-dinoreburnamenin-14-ol] | – | – | ~5 mg/kg
2 | 8 | C1=Cn2c3c(c4ccccc42)CCN2CCC[C@H]1[C@@H]32 [Example 5, (3α) 20,21-dinoreburnamenine] | – | – | –
3 | 633 | C1=Cn2c3c(c4ccccc42)CCN2CCC[C@@H]1[C@H]32 [Example 6, (16α) 20,21-dinoreburnamenine] | – | – | –

Row | SMILES | ARL (relative affinity for alpha2 adrenergic receptors, relative to phentolamine) [1] | Survival time (mice [2]) | enolase gamma-gamma (mice [3]) | ED50 (Sprague Dawley rats)
4 | O[C@H]1C[C@@H]2CCCN3CCc4c(n1c1ccccc41)[C@@H]23 [Example 3, (14α, 16α) 14,15-dihydro-20,21-dinoreburnamenin-14-ol] | 0.3 | +37% | -24% | ~10 mg/kg
